The compounds below were run against α4β7 integrin (Homo sapiens (Human), UniProt P13612+P26010) (assay: Integrin Adhesion Assay: Protocol 1 (MAdCAM-coated plate, RPMI-8866 cells, CellTiter GLO readout)). Details: not given.
Sequence of α4β7 integrin (P13612 34-1032): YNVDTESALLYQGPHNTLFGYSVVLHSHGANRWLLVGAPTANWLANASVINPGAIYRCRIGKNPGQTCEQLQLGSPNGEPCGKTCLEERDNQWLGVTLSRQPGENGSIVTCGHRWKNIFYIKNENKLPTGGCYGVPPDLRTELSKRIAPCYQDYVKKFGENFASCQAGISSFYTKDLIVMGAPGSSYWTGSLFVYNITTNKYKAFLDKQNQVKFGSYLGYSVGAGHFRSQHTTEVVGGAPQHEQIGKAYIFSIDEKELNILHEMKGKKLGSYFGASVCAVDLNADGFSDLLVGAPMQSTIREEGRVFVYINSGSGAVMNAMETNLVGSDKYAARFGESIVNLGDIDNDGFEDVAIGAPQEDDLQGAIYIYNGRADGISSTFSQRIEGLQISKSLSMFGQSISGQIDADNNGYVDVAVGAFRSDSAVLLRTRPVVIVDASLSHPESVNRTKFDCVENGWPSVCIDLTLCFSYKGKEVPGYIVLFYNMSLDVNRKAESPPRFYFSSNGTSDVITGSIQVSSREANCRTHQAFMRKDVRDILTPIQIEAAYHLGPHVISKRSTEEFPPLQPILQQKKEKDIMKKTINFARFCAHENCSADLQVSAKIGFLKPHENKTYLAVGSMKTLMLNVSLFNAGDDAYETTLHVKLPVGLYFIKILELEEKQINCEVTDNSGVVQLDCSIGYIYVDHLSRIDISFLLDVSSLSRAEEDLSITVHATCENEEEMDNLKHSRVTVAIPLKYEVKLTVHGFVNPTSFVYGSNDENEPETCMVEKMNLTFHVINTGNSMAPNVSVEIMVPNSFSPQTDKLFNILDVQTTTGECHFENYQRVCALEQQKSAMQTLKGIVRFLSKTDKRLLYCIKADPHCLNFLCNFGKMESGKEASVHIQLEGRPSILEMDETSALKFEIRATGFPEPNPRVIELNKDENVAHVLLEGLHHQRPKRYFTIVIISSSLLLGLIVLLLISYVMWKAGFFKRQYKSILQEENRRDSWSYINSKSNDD
Sequence of α4β7 integrin (P26010 20-798): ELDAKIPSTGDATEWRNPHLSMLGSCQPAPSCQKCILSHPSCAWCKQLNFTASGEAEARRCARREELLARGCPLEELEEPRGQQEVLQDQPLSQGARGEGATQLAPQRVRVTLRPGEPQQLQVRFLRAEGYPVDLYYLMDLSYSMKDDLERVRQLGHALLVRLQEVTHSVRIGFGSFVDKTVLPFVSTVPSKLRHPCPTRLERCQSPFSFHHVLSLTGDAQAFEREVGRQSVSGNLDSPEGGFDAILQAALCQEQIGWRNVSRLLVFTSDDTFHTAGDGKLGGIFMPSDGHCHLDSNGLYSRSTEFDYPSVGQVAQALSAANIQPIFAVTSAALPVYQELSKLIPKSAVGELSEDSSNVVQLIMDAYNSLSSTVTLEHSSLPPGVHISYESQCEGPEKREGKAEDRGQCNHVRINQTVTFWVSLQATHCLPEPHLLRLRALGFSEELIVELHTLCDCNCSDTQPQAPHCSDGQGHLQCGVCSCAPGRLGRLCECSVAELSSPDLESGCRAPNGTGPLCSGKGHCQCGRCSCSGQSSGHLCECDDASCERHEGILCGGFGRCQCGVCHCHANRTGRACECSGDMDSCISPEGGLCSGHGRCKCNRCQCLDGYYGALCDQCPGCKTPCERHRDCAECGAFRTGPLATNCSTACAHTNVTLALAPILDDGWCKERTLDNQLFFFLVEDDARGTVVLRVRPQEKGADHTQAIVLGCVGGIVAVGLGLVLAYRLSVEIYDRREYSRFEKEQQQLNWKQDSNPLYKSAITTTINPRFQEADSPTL
Assay type: cell-based
Procedure: α4β7 and α4β1 inhibition was evaluated in vitro using at least one of the following procedures:
Integrin Adhesion Assay: Protocol 1
MAdCAM (R&D Systems, 0.1 ug) was diluted in 50 μL PBS, added to each well of an opaque ELISA plate (Thermo), and incubated overnight at 4° C. Coated plates were washed once with PBS and then blocked with 200 μL of assay buffer (10 mM HEPES, 150 mM NaCl, 1 mM MnCl2, 0.1 mM CaCl2), 1% BSA) for 1 hour at 37° C. and 5% CO2. After incubation, buffer was aspirated from the plates and 50 μL of fresh assay buffer is added. Compounds were added by a compouns dispenser (Tecan) and DMSO concentration was normalized to 1% across each plate. 50 μL of RPMI-8866 cells (2×10^6 per mL) were added to each well and the plates were incubated for 1 hour at 37° C. and 5% CO2. After incubation, plates were allowed to cool to RT for 10 minutes before being washed four times in assay buffer by an automated plate washer (BioTek). After washing, 100 μL of a 1:1 mixture of assay buffer and CellTiter GLO 2.0 reagent (Promega) were added to each well. Plates were mixed for 2 minutes at 1000 rpm and then allowed to incubate an additional 10 minutes before reading out luminescence on a Tecan Spark plate reader. Raw data was converted to percent inhibition based on DMSO only and control compound wells, and curves were analyzed by 4-parameter fit within Dotmatics software.
An IC50 of 100 to 1000 nM was found for `Cn1c(=O)c(-c2cccc3c(C[C@H](NC(=O)c4c(F)cc(N5CCC[C@@H]5C(F)(F)F)cc4F)C(=O)O)cccc23)c(C(F)(F)F)c2ccccc21` [Compound 319] in this work.
In the case of `Cc1cccc(C)c1-c1cc(F)c(F)c(C(=O)N[C@@H](Cc2cccc3c(-c4c(C(F)(F)F)c5ccccc5n(C)c4=O)cccc23)C(=O)O)c1` [Compound 306], the IC50 is reported as > 1000 nM.
In the case of `CN(C)Cc1ccc2c(-c3cccc4c(C[C@H](NC(=O)[C@]5(C)CC[C@H](N6CCC(F)(F)CC6)CC5)C(=O)O)cccc34)nccc2c1` [Compound 586], the IC50 is reported as > 1000 nM.
An IC50 of 100 to 1000 nM was found for `Cn1c(=O)c(-c2cccc3c(C[C@H](NC(=O)c4c(F)cc5cn(CC(F)(F)F)nc5c4F)C(=O)O)cccc23)c(C(F)(F)F)c2ccccc21` [Compound 348] in this work.
In the case of `COc1ccn2nc(C(=O)N[C@@H](Cc3cccc4c(-c5c(C(F)(F)F)c6ccccc6n(C)c5=O)cccc34)C(=O)O)cc2c1` [Compound 427], the IC50 is reported as > 1000 nM.
In the case of `Cn1c(=O)c(-c2cccc3c(C[C@H](NC(=O)c4c(F)cc(N5CCOc6ccc(C(F)(F)F)cc65)cc4F)C(=O)O)cccc23)c(C(F)(F)F)c2ccccc21` [Compound 343], the IC50 is reported as > 1000 nM.
An IC50 of 100 to 1000 nM was found for `Cn1c(=O)c(-c2cccc3c(C[C@H](NC(=O)c4c(F)cc(N5CCC(F)(F)CC5)cc4F)C(=O)O)cccc23)c(C(F)(F)F)c2ccccc21` [Compound 379] in this work.
For `Cc1cccc(C)c1-c1nc(C(=O)N[C@@H](Cc2cccc3c(-c4c(C(F)(F)F)c5ccccc5n(C)c4=O)cccc23)C(=O)O)c(C)n1C` [Compound 349], the IC50 was > 1000 nM.
With `Cn1c(=O)c(-c2cccc3c(C[C@H](Nc4nccc(N5CCOC[C@@H]5C(F)(F)F)c4F)C(=O)O)cccc23)c(C(F)(F)F)c2ccccc21` [Compound 326] the IC50 was > 1000 nM.
For `Cn1c(=O)c(-c2cccc3c(C[C@H](NC(=O)c4cc5ccc(N6CC(F)C6)cn5n4)C(=O)O)cccc23)c(C(F)(F)F)c2ccccc21` [Compound 429], the IC50 was > 1000 nM.
An IC50 of 100 to 1000 nM was found for `CO[C@@H]1C[C@@H](c2cc(F)c(C(=O)N[C@@H](Cc3cccc4c(-c5c(C(F)(F)F)c6ccccc6n(C)c5=O)cccc34)C(=O)O)c(F)c2)N(C)C1` [Compound 464] in this work.
With `Cn1c(C(F)(F)F)cc(C(F)(F)F)c(-c2cccc3c(C[C@H](NC(=O)[C@]4(C)CC[C@H](N5CCC(F)(F)CC5)CC4)C(=O)O)cccc23)c1=O` [Compound 406] the IC50 was > 1000 nM.
An IC50 of 100 to 1000 nM was found for `Cn1c(=O)c(-c2cccc3c(C[C@H](NC(=O)c4c(F)cc(N5CC(F)C5)cc4F)C(=O)O)cccc23)c(C(F)(F)F)c2ccccc21` [Compound 395] in this work.
For `Cc1c(C(=O)N[C@@H](Cc2cccc3c(-c4c(C(F)(F)F)c5ccccc5n(C)c4=O)cccc23)C(=O)O)nn2ccccc12` [Compound 329], the IC50 was > 1000 nM.
In the case of `COCC1CCN(c2cc(F)c(C(=O)N[C@@H](Cc3cccc4c(-c5c(C(F)(F)F)c6ccccc6n(C)c5=O)cccc34)C(=O)O)c(F)c2)C1` (stereo partly shown) [Compound 463], the IC50 is reported as > 1000 nM.
`Cc1cccc(C)c1-c1cc(C(=O)N[C@@H](Cc2cccc3c(-c4c(C(F)(F)F)c5ccccc5n(C)c4=O)cccc23)C(=O)O)c(F)c(C(F)(F)F)c1` [Compound 303] was tested, and the IC50 was > 1000 nM.
With `Cn1c(=O)c(-c2cccc3c(C[C@H](NC(=O)c4c(F)ccc(C5CCCCC5)c4F)C(=O)O)cccc23)c(C(F)(F)F)c2ccccc21` [Compound 377] the IC50 was > 1000 nM.
An IC50 of 100 to 1000 nM was found for `CC(C)[C@H]1COCCN1c1cc(F)c(C(=O)N[C@@H](Cc2cccc3c(-c4c(C(F)(F)F)c5ccccc5n(C)c4=O)cccc23)C(=O)O)c(F)c1` [Compound 337] in this work.

Same assay, conditions: integrin adhesion assay; determined by at least one of the assays described (protocol not specified)
An IC50 of 100 to 1000 nM was found for `Cn1ccc(C(F)(F)F)c(-c2ccnc3c(C[C@H](NC(=O)c4c(F)cccc4F)C(=O)O)cccc23)c1=O` [Compound 212] in this work.
`Cn1ccc(=O)n(-c2cccc3c(C[C@H](NC(=O)C4(C)CCCN(CC(F)(F)F)C4)C(=O)O)cccc23)c1=O` (stereo partly shown) [Compound 121] was tested, and the IC50 was > 1000 nM.
An IC50 of 10 to 100 nM was found for `C=CCc1cn(C)c(=O)n(-c2cccc3c(C[C@H](NC(=O)c4c(F)cccc4F)C(=O)O)cccc23)c1=O` [Compound 136] in this work.
In the case of `Cn1ccc(=O)n(-c2cccc3c(C[C@H](NC(=O)c4c(F)ccc(NS(=O)(=O)C5CC5)c4F)C(=O)O)cccc23)c1=O` [Compound 134], the IC50 is reported as < 10 nM.

— US20250313535A1, “ALPHA 4 BETA 7 INTEGRIN MODULATORS AND USES THEREOF” (DICE MOLECULES SV, INC., priority 2022, published 2025)
